Patent US9365506B2, “Compounds and compositions as TLR2 agonists” (NOVARTIS AG, priority 2010, dated 2016)
Like-named read-outs stand apart in the source and are kept apart here.

Molecular target: human TLR2 (Homo sapiens, UniProt O60603)
Assay: Reporter gene assay: HEK 293 cells stably transfected with human TLR2 and NF-kB-driven luciferase reporter
Details: for Emax: HEK293, 7 h, read-out: Hek-TLR2 (% Eff); for EC50: HEK 293 stably transfected with human TLR2 and pNifty-Luciferase, 7 hours incubation, concentration giving 50% of maximal signal; for Hek-TLR2 (% Eff): % Eff relative to Pam3CSK4, HEK 293 human TLR2 NF-kB luciferase
Procedure: As a control assay, normal Hek293 transfected with pNifty-Luc were used. […] Bright-Glo™ Luciferase assay buffer and substrate were supplied by Promega #E263B and #E264B (assay substrate and buffer respectively). 384 well clear-bottom plates were supplied by Greiner bio-one (#789163-G) and were custom bar-coded plates.
Cells were plated at 25,000 cells/well in 384-well plates in a final volume of 50 μl of media. Cells were allowed to adhere to the plates after overnight (18 hours) culture at 37° C. and 5% CO2. Serially diluted experimental and positive control compounds were then dispensed to each well and incubated for 7 hours at 37° C. and 5% CO2. Cells stimulated with DMSO alone also serve as negative controls. After the incubation, 30 μl of the pre-mix assay buffer and substrate buffer were added to each well according to manufacturer's instructions. The luminescence signal was read on a CLIPR machine with an integration time of 20 seconds per plate.

Chain of human TLR2 (O60603 21-784): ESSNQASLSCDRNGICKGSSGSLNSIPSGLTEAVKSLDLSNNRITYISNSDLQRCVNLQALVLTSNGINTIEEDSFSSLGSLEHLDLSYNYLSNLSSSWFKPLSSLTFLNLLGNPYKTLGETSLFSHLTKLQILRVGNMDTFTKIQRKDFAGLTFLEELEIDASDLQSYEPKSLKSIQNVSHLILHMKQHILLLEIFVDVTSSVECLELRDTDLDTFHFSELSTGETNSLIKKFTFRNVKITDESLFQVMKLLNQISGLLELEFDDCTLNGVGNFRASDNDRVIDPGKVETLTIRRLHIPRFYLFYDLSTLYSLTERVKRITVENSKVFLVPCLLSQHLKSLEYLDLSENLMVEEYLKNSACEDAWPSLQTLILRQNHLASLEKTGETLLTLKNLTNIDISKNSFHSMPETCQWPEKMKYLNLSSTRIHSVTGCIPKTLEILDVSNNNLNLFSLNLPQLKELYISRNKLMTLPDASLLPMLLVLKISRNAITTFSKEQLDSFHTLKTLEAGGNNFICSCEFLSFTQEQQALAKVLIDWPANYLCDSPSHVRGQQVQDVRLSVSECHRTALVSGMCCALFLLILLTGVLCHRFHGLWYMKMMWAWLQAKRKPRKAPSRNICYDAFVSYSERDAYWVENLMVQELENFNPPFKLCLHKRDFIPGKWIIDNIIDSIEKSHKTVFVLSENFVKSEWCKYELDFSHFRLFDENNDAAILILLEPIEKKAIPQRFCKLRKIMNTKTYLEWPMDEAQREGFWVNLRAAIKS

CCCCCCCCCCNC(=O)OC[C@H](CSC[C@H](NC(=O)CCCCCC)C(=O)NCCOCCOCCOCCP(=O)(O)O)OC(=O)NCCCCCCCCCC [Example 85, ((14R,18R)-18-((decylcarbamoyl)oxy)-14-heptanamido-13,21-dioxo-3,6,9,20-tetraoxa-16-thia-12,22-diazadotriacontyl)phosphonic acid]
Emax: 71% | EC50 (Hek-TLR2 μM (EC50)): 2170 nM

CCCCCCCCCCCCCCCC(=O)N[C@@H](CSC[C@@H](COC(=O)CCCCCCCCCCC)OC(=O)CCCCCCCCCCC)C(=O)N[C@@H](C)C(=O)N[C@H](CCC(=O)O)C(N)=O [Example 75, (4R,7S,10R,14R)-4-carbamoyl-14-(dodecanoyloxy)-7-methyl-6,9,17-trioxo-10-palmitamido-16-oxa-12-thia-5,8-diazaoctacosan-1-oic acid]
Emax: 58% | EC50 (Hek-TLR2 μM (EC50)): 960 nM

CCCCCCCCCCCCOC[C@H](CSC[C@H](N)C(=O)NCCOCCOCCOCCC(=O)O)NC(=O)CCCCCCCCCCC [Example 33, (15R,19R)-15-amino-19-dodecanamido-14-oxo-4,7,10,21-tetraoxa-17-thia-13-azatritriacontan-1-oic acid]
Emax: 48% | EC50 (Hek-TLR2 μM (EC50)): 3850 nM

(4R,7S,10R,14R)-4-carbamoyl-7-ethyl-6,9,17-trioxo-10-palmitamido-14-(palmitoyloxy)-16-oxa-12-thia-5,8-diazadotriacontan-1-oic acid [Example 47]
Hek-TLR2 (% Eff): (88%) | EC50 (read-out: Hek-TLR2 μM (EC50)): 565 nM

CCCCCCCCCCCC(=O)NC[C@H](CSC[C@H](N)C(=O)NC1(CO)CC1)NC(=O)CCCCCCCCCCC [Example 12, N,N′—((R)-3-((R)-2-amino-3-(1-(hydroxymethyl)cyclopropylamino)-3-oxopropylthio)propane-1,2-diyl)didodecanamide]
Emax: 3.5% | EC50 (Hek-TLR2 μM (EC50)): > 100000 nM

CCCCCCCCCCCC(=O)OC[C@H](CSC[C@H](N)C(=O)N[C@@H](CC)COCC(=O)O)OC(=O)CCCCCCCCCCC [Example 13, (5S,8R,12R)-8-amino-12-(dodecanoyloxy)-5-ethyl-7,15-dioxo-3,14-dioxa-10-thia-6-azahexacosan-1-oic acid]
Emax: 118% | EC50 (Hek-TLR2 μM (EC50)): 6500 nM

CCCCCCCCCCCCOC[C@H](CSC[C@H](N)C(=O)NCCOCCOCCC(F)(F)P(=O)(O)O)NC(=O)CCCCCCCCCCC [Example 35, (12R,16R)-12-amino-16-dodecanamido-1,1-difluoro-11-oxo-4,7,18-trioxa-14-thia-10-azatriacontylphosphonic acid]
Emax: 15% | EC50 (Hek-TLR2 μM (EC50)): 770 nM

CCCCCCCCCCCC(=O)OC[C@H](CSC[C@H](N)C(=O)NCCc1cccc(O)c1)OC(=O)CCCCCCCCCCC [Example 49, (R)-3-(((R)-2-amino-3-((3-hydroxyphenethyl)amino)-3-oxopropyl)thio)propane-1,2-diyl didodecanoate]
Emax: 51% | EC50 (Hek-TLR2 μM (EC50)): > 21000 nM

CCCCCCCCCCCCCCCC(=O)N[C@@H](CSC[C@@H](COC(=O)CCCCCCCCCCC)OC(=O)CCCCCCCCCCC)C(=O)NCCOCCOCCOCCC(=O)O [Example 87, (15R,19R)-19-(dodecanoyloxy)-14,22-dioxo-15-palmitamido-4,7,10,21-tetraoxa-17-thia-13-azatritriacontan-1-oic acid]
Emax: 30% | EC50 (Hek-TLR2 μM (EC50)): 38000 nM

CCCCCCCCNC(=O)OC[C@H](CSC[C@H](N)C(=O)NCCOCCOCCOCCP(=O)(O)O)OC(=O)NCCCCCCCC [Example 38, (14R,18R)-14-amino-18-(octylcarbamoyloxy)-13,21-dioxo-3,6,9,20-tetraoxa-16-thia-12,22-diazatriacontylphosphonic acid]
Emax: 107% | EC50 (Hek-TLR2 μM (EC50)): 7030 nM

CCCCCCCCCCCC(=O)OC[C@H](CSC[C@H](N)C(=O)NCCOCCOCCN)OC(=O)CCCCCCCCCCC [Example 54, (11R,15R)-1,11-diamino-10-oxo-3,6-dioxa-13-thia-9-azahexadecane-15,16-diyl didodecanoate]
Emax: 101% | EC50 (Hek-TLR2 μM (EC50)): 1290 nM

(4R,7S,10R,14R)-10-amino-4-carbamoyl-7-ethyl-6,9,17-trioxo-14-(palmitoyloxy)-16-oxa-12-thia-5,8-diazadotriacontan-1-oic acid [Example 48]
Hek-TLR2 (% Eff): (106%) | EC50 (read-out: Hek-TLR2 μM (EC50)): 1360 nM

CCCCCCCCCCNC(=O)OC[C@H](CSC[C@H](NC(=O)CCCCC)C(=O)NCCOCCOCCOCCP(=O)(O)O)OC(=O)NCCCCCCCCCC [Example 92, ((14R,18R)-18-((decylcarbamoyl)oxy)-14-hexanamido-13,21-dioxo-3,6,9,20-tetraoxa-16-thia-12,22-diazadotriacontyl)phosphonic acid]
Emax: 99% | EC50 (Hek-TLR2 μM (EC50)): 280 nM

CCCCCCCCCCCCCCCCOC[C@H](CSC[C@H](N)C(=O)N[C@@H](CC)C(=O)N[C@H](CCC(=O)O)C(N)=O)OCCCCCCCCCCCCCCCC [Example 10, (4R,7S,10R,14R)-10-amino-4-carbamoyl-7-ethyl-14-(hexadecyloxy)-6,9-dioxo-16-oxa-12-thia-5,8-diazadotriacontan-1-oic acid]
Emax: 72% | EC50 (Hek-TLR2 μM (EC50)): 14100 nM

CCCCCCCCCCCCOC[C@H](CSC[C@H](N)C(=O)NCCOCCOCCOCCP(=O)(O)O)OC(=O)NCCCCCCCCCC [Example 90, ((14R,18R)-14-amino-18-((dodecyloxy)methyl)-13,20-dioxo-3,6,9,19-tetraoxa-16-thia-12,21-diazahentriacontyl)phosphonic acid]
Emax: 47% | EC50 (Hek-TLR2 μM (EC50)): > 100000 nM

CCCCCCCCCCCC(=O)OC[C@H](CSC[C@H](N)C(=O)NCCOCCOCCC(F)(F)P(=O)(O)O)OC(=O)CCCCCCCCCCC [Example 4, (12R,16R)-12-amino-16-(dodecanoyloxy)-1,1-difluoro-11,19-dioxo-4,7,18-trioxa-14-thia-10-azatriacontylphosphonic acid]
Emax: 101% | EC50 (Hek-TLR2 μM (EC50)): 31 nM

CCCCCCCCCCCC(=O)OC[C@H](CSC[C@H](N)C(=O)NCCOCCOCCOCCOCCP(=O)(O)O)OC(=O)CCCCCCCCCCC [Example 77, ((17R,21R)-17-amino-21-(dodecanoyloxy)-16,24-dioxo-3,6,9,12,23-pentaoxa-19-thia-15-azapentatriacontyl)phosphonic acid]
Emax: 100% | EC50 (Hek-TLR2 μM (EC50)): 38 nM

CCCCCCCCCCCC(=O)OC[C@H](CSC[C@H](N)C(=O)NCCOCCOS(=O)(=O)O)OC(=O)CCCCCCCCCCC [Example 91, (R)-3-(((R)-2-amino-3-oxo-3-((2-(2-(sulfooxy)ethoxy)ethyl)amino)propyl)thio)propane-1,2-diyl didodecanoate]
Emax: 120% | EC50 (Hek-TLR2 μM (EC50)): 61 nM

CCCCCCCCCCCC(=O)OC[C@H](CSC[C@H](N)C(=O)NCCCCCCN)OC(=O)CCCCCCCCCCC [Example 56, (R)-3-(((R)-2-amino-3-((6-aminohexyl)amino)-3-oxopropyl)thio)propane-1,2-diyl didodecanoate]
Emax: 107% | EC50 (Hek-TLR2 μM (EC50)): 1220 nM

CCCCCCCCCCCC(=O)OC[C@H](CSC[C@H](N)C(=O)NCCCC(C)(C)CO)OC(=O)CCCCCCCCCCC [Example 72, (R)-3-(((R)-2-amino-3-((5-hydroxy-4,4-dimethylpentyl)amino)-3-oxopropyl)thio)propane-1,2-diyl didodecanoate]
Emax: 49% | EC50 (Hek-TLR2 μM (EC50)): 30700 nM

CCCCCCCCCCCCCCCC(=O)N[C@@H](CSC[C@@H](COC(=O)CCCCCCCCCCC)OC(=O)CCCCCCCCCCC)C(=O)N[C@@H](CO)C(=O)NCCOCCOCCOCCC(=O)O [Example 89, (15S,18R,22R)-22-(dodecanoyloxy)-15-(hydroxymethyl)-14,17,25-trioxo-18-palmitamido-4,7,10,24-tetraoxa-20-thia-13,16-diazahexatriacontan-1-oic acid]
Emax: 104% | EC50 (Hek-TLR2 μM (EC50)): 4940 nM

CCCCCCCCCCCCOC[C@H](CSC[C@H](N)C(=O)N[C@@H](C)COCCOCCOCCP(=O)(O)O)OCCCCCCCCCCCC [Example 29, ((11S,14R,18R)-14-amino-18-(dodecyloxy)-11-methyl-13-oxo-3,6,9,20-tetraoxa-16-thia-12-azadotriacontyl)phosphonic acid]
Emax: 74% | EC50 (Hek-TLR2 μM (EC50)): 1850 nM

CCCCCCCCCCCCCCCCOC[C@H](CSC[C@H](N)C(=O)NCCOCCOCCOCCP(=O)(O)O)OCCCCCCCCCCCCCCCC [Example 76, ((14R,18R)-14-amino-18-(hexadecyloxy)-13-oxo-3,6,9,20-tetraoxa-16-thia-12-azahexatriacontyl)phosphonic acid]
Emax: 109% | EC50 (Hek-TLR2 μM (EC50)): 3450 nM

CCCCCCCCCCCC(=O)OC[C@H](CSC[C@H](N)C(=O)NCCCOCCOCCOCCCNC(=O)C(N)CS)OC(=O)CCCCCCCCCCC (stereo partly drawn) [Example 9, (20R,24R)-2,20-diamino-1-mercapto-3,19-dioxo-8,11,14-trioxa-22-thia-4,18-diazapentacosane-24,25-diyl didodecanoate]
Emax: 73% | EC50 (Hek-TLR2 μM (EC50)): 247 nM

CCCCCCCCCCCC(=O)OC[C@H](CSC[C@H](N)C(=O)NCCCn1ccnc1)OC(=O)CCCCCCCCCCC [Example 60, (R)-3-(((R)-3-((3-(1H-imidazol-1-yl)propyl)amino)-2-amino-3-oxopropyl)thio)propane-1,2-diyl didodecanoate]
Emax: 119% | EC50 (Hek-TLR2 μM (EC50)): 410 nM

CCCCCCCCCCCCOC[C@H](CSC[C@H](N)C(=O)NCCOCCOCCOCCP(=O)(O)O)OC(=O)CCCCCCCCCCC [Example 27, ((14R,18R)-14-amino-18-(dodecanoyloxy)-13-oxo-3,6,9,20-tetraoxa-16-thia-12-azadotriacontyl)phosphonic acid]
Emax: 77% | EC50 (Hek-TLR2 μM (EC50)): 610 nM

CCCCCCCCCCCCOC[C@H](CSC[C@H](N)C(=O)NCCOCCOCCOCCOCCP(=O)(O)O)NC(=O)CCCCCCCCCCC [Example 79, ((17R,21R)-17-amino-21-dodecanamido-16-oxo-3,6,9,12,23-pentaoxa-19-thia-15-azapentatriacontyl)phosphonic acid]
Emax: 20% | EC50 (Hek-TLR2 μM (EC50)): 1860 nM
